Results from patent US11000033B2, “Ketone or oxime compound, and herbicide” (NISSAN CHEMICAL CORPORATION, priority 2014, dated 2021).

Columns and labels:
Format in all cases: in vivo
[1] = tested on: Echinochloa oryzacola Vasing.; experiment: Test Example 2: herbicidal activity, application during weed generation in submerged conditions (symbol A); details: Table 23; application herbicide amount 320 g/ha; grade 0-5 by criteria of Test Example 1
Outline: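 Weeds emerging under flooded conditions were treated with compound formulated as an emulsion and diluted with water to the intended herbicide amount, poured onto the surface of 4 cm standing water. Seeds had been co-sown in alluvial soil; plants grew at 25° C. to 30° C. and were assessed after 3 weeks.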

[2] = tested on: Leptochloa chinensis; experiment: Test Example 3: herbicidal effect by foliage application, Wagner pot (symbol D); details: application herbicide amount 320 g/ha
Outline: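 Alluvial soil was flooded to a depth of 0.1–0.5 cm, seeded with the weeds and rice, and kept in a greenhouse at 25–30 °C. After 14 days of growth, the foliage received a small-sprayer application of emulsion diluted to the intended rate; injury was rated at 3 weeks.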

[3] = tested on: Setaria viridis; experiment: Test Example 4: herbicidal effect by soil treatment (symbol G)
Outline: (§1)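 Seeds were sown in sterilized diluvial soil, covered with about 1.5 cm of soil, and the soil surface was sprayed with a water-diluted emulsion of the compound at a predetermined rate. Plants grew in a greenhouse at 25° C. to 30° C.; effects were scored visually 3 weeks after application.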

[4] = tested on: Amaranthus retroflexus; experiment: Test Example 4: herbicidal effect by soil treatment (symbol N)
Outline: as §1

[5] = tested on: wheat; experiment: Test Example 4: effect on crop by soil treatment (symbol e); details: for e: wheat, effect on crop grade: application herbicide amount 320 g/ha; for e: wheat, effect grade on crop: 320 g/ha
Outline: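 Crop seed is sown in spots together with several weed species in a box of sterilized diluvial soil. It is covered by about 1.5 cm of soil and kept in a greenhouse held between 25° C. and 30° C.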

[6] = tested on: Setaria viridis; experiment: Test Example 5: herbicidal effect by foliage application, plastic box (symbol G); details: 320 g/ha, 3 weeks after application
Outline: (§2)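 Leaf-applied emulsion, water-diluted to a preset herbicide dose, on two-week-old seedlings raised in a 25° C. to 30° C. greenhouse; injury rated at 3 weeks using earlier criteria.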

[7] = tested on: Alopecurus myosuroides; experiment: Test Example 5: herbicidal effect by foliage application, plastic box (symbol J); details: 320 g/ha, 3 weeks after application
Outline: as §2

[8] = tested on: Chenopodium album; experiment: Test Example 5: herbicidal effect by foliage application, plastic box (symbol O); details: 320 g/ha, 3 weeks after application
Outline: as §2

[9] = tested on: corn; experiment: Test Example 5: effect on crop by foliage application, plastic box (symbol c); details: 320 g/ha, 3 weeks after application
Outline: (§3)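 Crop seed is sown alongside grass and broadleaf weed species in spots in sterilized diluvial soil, then covered to a depth of about 1.5 cm. Plants grow in a greenhouse kept at 25° C. to 30° C.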

[10] = tested on: rice plant; experiment: Test Example 5: effect on crop by foliage application, plastic box (symbol b); details: 320 g/ha, 3 weeks after application
Outline: as §3

[11] = tested on: wheat; experiment: Test Example 5: effect on crop by foliage application, plastic box (symbol e); details: 320 g/ha, 3 weeks after application
Outline: as §3

[12] = tested on: beet; experiment: Test Example 5: effect on crop by foliage application, plastic box (symbol f); details: 320 g/ha, 3 weeks after application
Outline: as §3

[13] = application herbicide amount 320 g/ha

SMILES | Herbicidal effect grade, A: Echinochloa oryzacola Vasing. [1] | herbicidal effect on D (Leptochloa chinensis), grade 0-5 [2] | G: Setaria viridis, herbicidal effect grade [3, 13] | N: Amaranthus retroflexus, herbicidal effect grade [4, 13] | e: wheat, effect on crop grade [5] | G: Setaria viridis, herbicidal effect grade [6] | J: Alopecurus myosuroides, herbicidal effect grade [7] | O: Chenopodium album, herbicidal effect grade [8] | c: corn, effect on crop grade [9] | b: directly sowed rice plant, effect on crop grade [10] | e: wheat, effect on crop grade [11] | f: beet, effect on crop grade [12] | G: Setaria viridis, herbicidal effect grade ([3]; 320 g/ha) | N: Amaranthus retroflexus, herbicidal effect grade ([4]; 320 g/ha) | e: wheat, effect grade on crop [5] | further results
CCC(C)C(=O)CC1CC(O)=C(c2c(C)cc(C)cc2C)C1=O (stereo not drawn) [2-024] | 1 (Herbicidal ratio of 5% or higher and lower than 20%) | 3 (Herbicidal ratio of 40% or higher and lower than 70%) | 5 (Herbicidal ratio of 90% or more (almost completely withered)) | 0 (Herbicidal ratio of 5% or lower (almost no effect)) | 0 (Herbicidal ratio of 5% or lower (almost no effect)) | 5 (Herbicidal ratio of 90% or more (almost completely withered)) | 4 (Herbicidal ratio of 70% or higher and lower than 90%) | 0 (Herbicidal ratio of 5% or lower (almost no effect)) | 3 (Herbicidal ratio of 40% or higher and lower than 70%) | 5 (Herbicidal ratio of 90% or more (almost completely withered)) | 0 (Herbicidal ratio of 5% or lower (almost no effect)) | 0 (Herbicidal ratio of 5% or lower (almost no effect)) | – | – | – | –
COC(=O)C(C(=O)C1CC1)C1CC(O)=C(c2c(C)cc(C)cc2C)C1=O (stereo not drawn) [2-014] | 4 (Herbicidal ratio of 70% or higher and lower than 90%) | 4 (Herbicidal ratio of 70% or higher and lower than 90%) | 5 (Herbicidal ratio of 90% or more (almost completely withered)) | 0 (Herbicidal ratio of 5% or lower (almost no effect)) | 0 (Herbicidal ratio of 5% or lower (almost no effect)) | 5 (Herbicidal ratio of 90% or more (almost completely withered)) | 5 (Herbicidal ratio of 90% or more (almost completely withered)) | 0 (Herbicidal ratio of 5% or lower (almost no effect)) | 3 (Herbicidal ratio of 40% or higher and lower than 70%) | 5 (Herbicidal ratio of 90% or more (almost completely withered)) | 0 (Herbicidal ratio of 5% or lower (almost no effect)) | 0 (Herbicidal ratio of 5% or lower (almost no effect)) | – | – | – | –
CCCC(=O)CC1CC(O)=C(c2c(C)cc(C)cc2C)C1=O (stereo not drawn) [2-021] | 5 (Herbicidal ratio of 90% or more (almost completely withered)) | 3 (Herbicidal ratio of 40% or higher and lower than 70%) | 5 (Herbicidal ratio of 90% or more (almost completely withered)) | 2 (Herbicidal ratio of 20% or higher and lower than 40%) | 0 (Herbicidal ratio of 5% or lower (almost no effect)) | 4 (Herbicidal ratio of 70% or higher and lower than 90%) | 5 (Herbicidal ratio of 90% or more (almost completely withered)) | 0 (Herbicidal ratio of 5% or lower (almost no effect)) | 3 (Herbicidal ratio of 40% or higher and lower than 70%) | 4 (Herbicidal ratio of 70% or higher and lower than 90%) | 0 (Herbicidal ratio of 5% or lower (almost no effect)) | 0 (Herbicidal ratio of 5% or lower (almost no effect)) | – | – | – | –
CON=C(C)CC1CC(OC(=O)Cc2ccc(OC)cc2)=C(c2c(C)cc(C)cc2C)C1=O (stereo not drawn) [1-156] | 5 (Herbicidal ratio of 90% or more (almost completely withered)) | 5 (Herbicidal ratio of 90% or more (almost completely withered)) | – | – | – | 5 (Herbicidal ratio of 90% or more (almost completely withered)) | 5 (Herbicidal ratio of 90% or more (almost completely withered)) | 2 (Herbicidal ratio of 20% or higher and lower than 40%) | 4 (Herbicidal ratio of 70% or higher and lower than 90%) | 5 (Herbicidal ratio of 90% or more (almost completely withered)) | 5 (Herbicidal ratio of 90% or more (almost completely withered)) | 3 (Herbicidal ratio of 40% or higher and lower than 70%) | 5 (Herbicidal ratio of 90% or more (almost completely withered)) | 5 (Herbicidal ratio of 90% or more (almost completely withered)) | 5 (Herbicidal ratio of 90% or more (almost completely withered)) | –
COCCOC(=O)OC1=C(c2c(C)cc(C)cc2C)C(=O)C(CC(C)=NOC)C1 (stereo not drawn) [1-147] | 5 (Herbicidal ratio of 90% or more (almost completely withered)) | 5 (Herbicidal ratio of 90% or more (almost completely withered)) | – | – | – | – | – | – | – | – | – | – | 5 (Herbicidal ratio of 90% or more (almost completely withered)) | 5 (Herbicidal ratio of 90% or more (almost completely withered)) | 5 (Herbicidal ratio of 90% or more (almost completely withered)) | G: Setaria viridis, herbicidal effect (criteria 0-5) [6]: 5 (Herbicidal ratio of 90% or more (almost completely withered)); J: Alopecurus myosuroides, herbicidal effect (criteria 0-5) [7]: 5 (Herbicidal ratio of 90% or more (almost completely withered)); O: Chenopodium album, herbicidal effect (criteria 0-5) [8]: 1 (Herbicidal ratio of 5% or higher and lower than 20%); c: corn, effect on crop (criteria 0-5) [9]: 5 (Herbicidal ratio of 90% or more (almost completely withered)); b: directly sowed rice plant, effect on crop (criteria 0-5) [10]: 5 (Herbicidal ratio of 90% or more (almost completely withered)); e: wheat, effect on crop (criteria 0-5) [11]: 5 (Herbicidal ratio of 90% or more (almost completely withered)); f: beet, effect on crop (criteria 0-5) [12]: 3 (Herbicidal ratio of 40% or higher and lower than 70%)
